The record followed here is paper PMC12650660, “Novel Synthetic Strategies Towards Analogues of Cadaside and Malacidin Antibiotic Peptides” (Biomolecules, 2025).

In brackets after ≈: the same amount, converted by molar mass. Entries after “also recorded” stand apart in the source; their conditions may differ. Numbered stars: 1 amine (or outer) side, 2 acyl side, 3 side chain; on linkers, the order of the positions; unused ones are H or OH. Bridge positions count the residues as written; N and C are the ends. Square brackets hold non-standard residues; d marks the D form. Peptide text beside a SMILES is read from it. * marks the point of attachment. β2hAla(R) = C[C@H](CN[*:1])C(=O)[*:2]; Decanoyl = CCCCCCCCCC(=O)*; Dap = NC[C@H](N)C(=O)O; Sar = CNCC(=O)O

For one assay, the system named is B. subtilis 168. The format is cell-based. To be noted: 168, 24 h. As for the experimental part: MICs were measured in triplicate by microbroth dilution. An overnight culture of B. subtilis 168 (DSMZ German Collection of Microorganisms and Cell Cultures GmbH) was inoculated at 5 × 10^5 CFU/mL in cation-adjusted Mueller–Hinton broth (MHB II) with or without 15 mM or 100 mM CaCl2. Serial two-fold peptide dilutions (128 - 1 µg/mL for analogues and 16 - 0.25 µg/mL for daptomycin) were incubated in polypropylene U-bottom 96-well plates (200 µL final volume) at 37 °C for 24 h. MIC was the lowest concentration at which no growth was observed. Optical density measurements at 620 nm were performed using a Thermo Scientific Multiskan FC (Thermo Fisher Scientific Inc., Paisley, UK). MIC was determined from the lowest concentration at which no tubidity was observed, using an untreated positive growth control, and a broth-only sterility control as references.

The nature of assay [1]: TLC precursor-binding assay with lipid II. The arrangement: key to Lipid II (TLC binding): “+” indicates binding confirmed; “-” indicates no binding; “~” indicates potential binding with absence of precursor band. The following applies: for binding to lipid II in TLC assay (in words): lipid II spot on TLC after incubation, PMA staining in Figure S6; for Lipid II (TLC binding): peptide 0.5, 1, 2 equiv. (nisin 0.1, 0.5, 1 equiv.) with lipid II in Tris·HCl pH 7.5, 50 mM CaCl2, 1 h, silica TLC. As for the experimental part: (§1) Lipid II and undecaprenyl phosphate (C55-P) (1 equiv., 30 µL) in Tris•HCl buffer (0.2% Triton X-100, 26 mM MgCl2, and 50 mM CaCl2 at pH 7.5) were incubated with the peptides (0.5, 1, 2 equiv.) or nisin (0.1, 0.5, 1 equiv.) in 30 µL water for 1 h. The reaction was then extracted with ^tBuOH/6 M PyOAc (2/1 v/v, 100 µL) and the organic phase was dried using an Eppendorf vacuum centrifuge 5301 (Fisher Scientific, Loughborough, UK) under reduced pressure. The solid was redissolved in CHCl3/MeOH (1/1 v/v, 30–60 µL) for spotting onto the TLC plates. In addition to the peptide–lipid mixtures, a control of each peptide/nisin with 30 µL buffer, and a control of each lipid with 30 µL HPLC-grade water were also incubated and subjected to the same workup. Silica TLC plates were run in a CHCl3/MeOH/H2O/NH3 (88/48/10/1 v/v) solvent system and stained using iodine vapour, phosphomolybdic acid (PMA), or KMnO4 stain, as well as visualisation at 254 nm and 365 nm.

The nature of assay [2]: TLC precursor-binding assay with C55-P. On the set-up: key to C55-P (TLC binding): “+” indicates binding confirmed; “-” indicates no binding; “~” indicates potential binding with absence of precursor band. To be noted: for C55-P (TLC binding): peptide 0.5, 1, 2 equiv. with C55-P in Tris·HCl pH 7.5, 50 mM CaCl2, 1 h, silica TLC; for C55-P spot on TLC after incubation with peptide (in words): absence of C55-P spot = potential indicator of binding, KMnO4 staining in Figure S5. As for the experimental part: as §1

In the case of `CCCCCCCCCC(=O)NC[C@@H](C)C(=O)NCC(=O)N[C@H](CCC(=O)O)C(=O)N[C@@H](Cc1ccc(O)cc1)C(=O)N[C@@H]1C(=O)N[C@H]([C@H](C)CC)C(=O)N[C@@H](CC(=O)O)C(=O)N[C@@H](CC(=O)O)C(=O)N2CCC[C@H]2C(=O)NCC(=O)N[C@H](CCC(=O)O)C(=O)N[C@@H](CC(=O)O)C(=O)N(C)CC(=O)O[C@@H]1C` [Peptide C7a] (Decanoyl-[β2hAla(R)]G[dE]YT[dI]DDPG[dE]D[Sar]; ester 5-C), in the assay on B. subtilis 168, the “MIC + Ca^2+” value is 128 µg/mL and the “MIC − Ca^2+” value worked out at 128 µg/mL (≈ 85.2 µM). Moreover, in assay [1], the “binding to lipid II in TLC assay (in words)” value (shortened to “binding to lipid II”) is given as “lack of binding” and the “Lipid II (TLC binding)” value is “-”. The “C55-P (TLC binding)” value in assay [2] was “-”.
In the case of `CCCCCCCCCC(=O)N[C@@H](CC(=O)O)C(=O)N[C@H]1CNC(=O)[C@@H]2CCCN2C(=O)[C@H](C(C)C)NC(=O)CNC(=O)[C@H](CC(=O)O)NC(=O)CNC(=O)[C@H](CC(=O)O)NC(=O)[C@H](CC(=O)O)NC(=O)[C@H](CCCCN)NC(=O)[C@@H](C(C)C)NC1=O` [Peptide M5] (Decanoyl-D[Dap][dV]KDDGDGVP; lactam 2-C), in the assay with B. subtilis 168, the “MIC + Ca^2+” value came out at 128 µg/mL and the “MIC − Ca^2+” value came out at 128 µg/mL (≈ 103 µM). In addition, the “Lipid II (TLC binding)” value in assay [1] is “-”. Further, the “C55-P (TLC binding)” value in assay [2] is “-”.
For `CCCCCCCCCC(=O)NC[C@@H](C)C(=O)NCC(=O)N[C@H](CCC(=O)O)C(=O)N[C@@H](Cc1ccc(O)cc1)C(=O)N[C@@H]1C(=O)N[C@H]([C@H](C)CC)C(=O)N[C@@H](CC(=O)O)C(=O)N[C@@H](CC(=O)O)C(=O)N2CCC[C@H]2C(=O)NCC(=O)N[C@H](CC(=O)O)C(=O)N[C@@H](CC(=O)O)C(=O)N(C)CC(=O)O[C@@H]1C` [Peptide C3] (Decanoyl-[β2hAla(R)]G[dE]YT[dI]DDPG[dD]D[Sar]; ester 5-C), in the assay with B. subtilis 168, the “MIC + Ca^2+” value came to 128 µg/mL and the “MIC − Ca^2+” value turned out to be 128 µg/mL (≈ 86 µM). For the same compound, the “Lipid II (TLC binding)” value in assay [1] is listed as “-”. Also, in assay [2], the “C55-P spot on TLC after incubation with peptide (in words)” value (“C55-P spot on TLC after incubation” for short) was “no spots for C55-P; also recorded: no longer visible” and the “C55-P (TLC binding)” value is recorded as “~”.
With `CCCCCCCCCC(=O)NC[C@@H](C)C(=O)NCC(=O)N[C@H](CCC(=O)O)C(=O)N[C@@H](Cc1ccc(O)cc1)C(=O)N[C@@H]1C(=O)N[C@H]([C@H](C)CC)C(=O)N[C@@H](CC(=O)O)C(=O)N[C@@H](CC(=O)O)C(=O)N2CCC[C@H]2C(=O)NCC(=O)N[C@@H](CCC(=O)O)C(=O)N[C@@H](CCC(=O)O)C(=O)N(C)CC(=O)O[C@@H]1C` [Peptide C2c] (Decanoyl-[β2hAla(R)]G[dE]YT[dI]DDPGEE[Sar]; ester 5-C), the “Lipid II (TLC binding)” value in assay [1] is recorded as “-”. Moreover, the “C55-P spot on TLC after incubation” value in assay [2] was “no longer visible”.
As to `CCCCCCCCCC(=O)NC[C@@H](C)C(=O)NCC(=O)N[C@H](CCC(=O)O)C(=O)N[C@@H](Cc1ccc(O)cc1)C(=O)N[C@@H]1C(=O)N[C@H]([C@H](C)CC)C(=O)N[C@@H](CC(=O)O)C(=O)N[C@@H](CC(=O)O)C(=O)N2CCC[C@H]2C(=O)NCC(=O)N[C@@H](CC(=O)O)C(=O)N[C@@H](CC(=O)O)C(=O)N(C)CC(=O)O[C@@H]1C` [Peptide C4] (Decanoyl-[β2hAla(R)]G[dE]YT[dI]DDPGDD[Sar]; ester 5-C), in the assay with B. subtilis 168, the “MIC + Ca^2+” value is reported as 128 µg/mL and the “MIC − Ca^2+” value was found to be 128 µg/mL (≈ 86 µM). In addition, the “Lipid II (TLC binding)” value in assay [1] is given as “-”. Also, the “C55-P (TLC binding)” value in assay [2] is “-”.
Regarding `CCCCCCCCCC(=O)NC[C@@H](C)C(=O)NCC(=O)N[C@H](CCC(=O)O)C(=O)N[C@@H](Cc1ccc(O)cc1)C(=O)N[C@@H]1C(=O)N[C@H]([C@H](C)CC)C(=O)N[C@@H](CC(=O)O)C(=O)N[C@@H](CC(=O)O)C(=O)N2CCC[C@H]2C(=O)NCC(=O)N[C@@H](CCC(=O)O)C(=O)N[C@@H](CC(=O)O)C(=O)N(C)CC(=O)O[C@@H]1C` [Peptide C8] (Decanoyl-[β2hAla(R)]G[dE]YT[dI]DDPGED[Sar]; ester 5-C), in the assay with B. subtilis 168, the “MIC + Ca^2+” value is 128 µg/mL and the “MIC − Ca^2+” value was 128 µg/mL (≈ 85.2 µM). In assay [1], the “Lipid II (TLC binding)” value is reported as “-”. In assay [2], the “C55-P (TLC binding)” value was “-”.
On to `CCCCCCCCCC(=O)N[C@@H](CC(=O)O)C(=O)N[C@H]1CNC(=O)[C@@H]2CCCN2C(=O)[C@H](C(C)C)NC(=O)[C@H](CC(=O)O)NC(=O)CNC(=O)[C@H](CC(=O)O)NC(=O)CNC(=O)[C@H](CC(=O)O)NC(=O)[C@H](CCCCN)NC(=O)[C@@H](C(C)C)NC1=O` [Peptide M3] (Decanoyl-D[Dap][dV]KDGDGDVP; lactam 2-C), for which, in the assay on B. subtilis 168, the “MIC + Ca^2+” value stood at 128 µg/mL and the “MIC − Ca^2+” value is 128 µg/mL (≈ 103 µM). Further, in assay [1], the “binding to lipid II” value is “lack of binding” and the “Lipid II (TLC binding)” value is on record as “-”. The “C55-P (TLC binding)” value in assay [2] is “-”.
In the case of `CCCCCCCCCC(=O)NC[C@@H](C)C(=O)NCC(=O)N[C@H](CCC(=O)O)C(=O)N[C@@H](Cc1ccc(O)cc1)C(=O)N[C@@H]1C(=O)N[C@H]([C@H](C)CC)C(=O)N[C@@H](CC(=O)O)C(=O)N[C@@H](CC(=O)O)C(=O)N2CCC[C@H]2C(=O)NCC(=O)N[C@H](CC(=O)O)C(=O)N[C@@H](CCC(=O)O)C(=O)N(C)CC(=O)O[C@@H]1C` [Peptide C5] (Decanoyl-[β2hAla(R)]G[dE]YT[dI]DDPG[dD]E[Sar]; ester 5-C), in the assay on B. subtilis 168, the “MIC + Ca^2+” value turned out to be 128 µg/mL and the “MIC − Ca^2+” value turned out to be 128 µg/mL (≈ 85.2 µM). In assay [1], the “Lipid II (TLC binding)” value is reported as “-”. Besides, the “C55-P (TLC binding)” value in assay [2] was “-”.
Consider `CCCCCCCCCC(=O)NC[C@@H](C)C(=O)NCC(=O)N[C@H](CCC(=O)O)C(=O)N[C@@H](Cc1ccc(O)cc1)C(=O)N[C@@H]1C(=O)N[C@H]([C@H](C)CC)C(=O)N[C@@H](CC(=O)O)C(=O)N[C@@H](CC(=O)O)C(=O)N2CCC[C@H]2C(=O)NCC(=O)N[C@H](CCC(=O)O)C(=O)NCC(=O)N[C@@H](CCC(=O)O)C(=O)N(C)CC(=O)O[C@@H]1C` [Peptide C9] (Decanoyl-[β2hAla(R)]G[dE]YT[dI]DDPG[dE]GE[Sar]; ester 5-C), for which, in the assay on B. subtilis 168, the “MIC + Ca^2+” value stood at 128 µg/mL and the “MIC − Ca^2+” value is 128 µg/mL (≈ 81.3 µM). Moreover, the “Lipid II (TLC binding)” value in assay [1] is “-”. For the same compound, in assay [2], the “C55-P spot on TLC after incubation” value is listed as “a lack of binding” and the “C55-P (TLC binding)” value is reported as “-”.
On to `CCCCCCCCCC(=O)NC[C@@H](C)C(=O)NCC(=O)N[C@H](CCC(=O)O)C(=O)N[C@@H](Cc1ccc(O)cc1)C(=O)N[C@@H]1C(=O)N[C@H]([C@H](C)CC)C(=O)N[C@@H](CC(=O)O)C(=O)N[C@@H](CC(=O)O)C(=O)N2CCC[C@H]2C(=O)NCC(=O)N[C@H](CCC(=O)O)C(=O)N[C@@H](CC(=O)O)C(=O)N(C)CC(=O)O[C@@H]1C` [Peptide C7b] (Decanoyl-[β2hAla(R)]G[dE]YT[dI]DDPG[dE]D[Sar]; ester 5-C), for which the “MIC + Ca^2+” value in the assay with B. subtilis 168 turned out to be 128 µg/mL.
For `CCCCCCCCCC(=O)NC[C@@H](C)C(=O)NCC(=O)N[C@H](CCC(=O)O)C(=O)N[C@@H](Cc1ccc(O)cc1)C(=O)N[C@@H]1C(=O)N[C@H]([C@H](C)CC)C(=O)N[C@@H](CC(=O)O)C(=O)N[C@@H](CC(=O)O)C(=O)N2CCC[C@H]2C(=O)NCC(=O)N[C@@H](CCC(=O)O)C(=O)N[C@@H](CCC(=O)O)C(=O)N(C)CC(=O)O[C@@H]1C` [Peptide C2b] (Decanoyl-[β2hAla(R)]G[dE]YT[dI]DDPGEE[Sar]; ester 5-C), the “Lipid II (TLC binding)” value in assay [1] is listed as “-”. In addition, in assay [2], the “C55-P spot on TLC after incubation” value is on record as “no longer visible”.
On to Nisin [reference compound], for which, in assay [1], the “binding to lipid II” value is “nisin-lipid II binding; also recorded: Positive binding” and the “Lipid II (TLC binding)” value is “+”.
